The text below walks through data of US20230047816A1 (priority 2018, published 2023).

The conditions of data set [1]: cited from earlier work.
The subject of data set [2] is HUVECs. The data set can be described thus: Cell viability of HUVECs in normoxia and hypoxia. Format: cell-based. The following applies: both normoxia and hypoxia conditions; FIG. 1.
Another data set has as its system 4T1-M3-Luc breast tumor. Description: Orthotopic 4T1-M3-Luc syngeneic breast tumor model. Format: in vivo, female BALB/c mice. As to the method: The aim of this study was to evaluate the antitumor and anti-metastatic efficacy of GO-672 (4-({4-carboxy-2′,4′-dichloro-[1,1′-biphenyl]-3-yl}carbamoyl)-6-hydroxybenzene-1,3-dicarboxylic acid) (30 mg/kg twice daily, i.p.) in an orthotopic 4T1-M3-Luc syngeneic breast tumor model in female BALB/c mice in vivo.
Level of metastasis was evaluated in lymph nodes, lung, spine and ileum by ex vivo luciferase bioluminescence measurements (FIG. 10D).

A further data set relates to HUVEC spheroids. The data set can be described thus: VEGF-A induced sprouting, spheroid-based cellular angiogenesis assay. Format: cell-based. The following applies: Homo sapiens. The protocol: The effect of PFKFB3 inhibitors on VEGF-A induced sprouting of HUVECs in a spheroid-based cellular angiogenesis assay. Sunitinib was used as a control. The experiments were pursued in modification of the originally published protocol (Korff and Augustin: J Cell Sci 112: 3249-58, 1999). In brief, spheroids were prepared as described (Korff and Augustin: J Cell Biol 143:1341-52, 1998) by pipetting 500 HUVEC in a hanging drop on plastic dishes to allow overnight spheroid aggregation. 50 HUVEC spheroids were then seeded in 0.9 ml of a collagen gel and pipetted into individual wells of a 24 well plate to allow polymerization. The test compounds in combination with the growth factor VEGF-A at 25 ng/ml final assay concentration) were added after 30 min by pipetting 100 μl of a 10-fold concentrated working solution on top of the polymerized gel. Plates were incubated at 37° C. for 24 hours and fixed by adding 4% Roti-Histofix (Roth, Karlsruhe, Germany). Sprouting intensity of HUVEC spheroids treated with the growth factor and the inhibitors were quantitated by an image analysis system determining the cumulative sprout length per spheroid (CSL) using an inverted microscope and the digital imaging software NIS-Elements BR 3.0 (Nikon). The mean of the cumulative sprout length of 10 randomly selected spheroids was analyzed as an individual data point.

Data set [3] relates to HUVECs. The data set can be described thus: HUVEC cell viability (Cyquant NF cell proliferation assay). Format: cell-based, human. The following applies: normoxia (20% O2) and hypoxia (1% O2). As to the method:
ThermoFisher Cyquant NF cell proliferation assay kit Normoxia conditions: 37° C., 5% CO2, 20% O2 incubator Hypoxia conditions: 37° C., 5% CO2, 1% O2 incubator FIG. 2. Effect of GO-672 on vessel sprouting in vitro. Raw images from the experiment with 3D spheroids of HUVEC after treatment with GO-672 (B) and Sunitinib (A). VEGF-A was used as a stimulation factor. Dose-response plot of GO-672 (C) and Sunitinib (D).

A further data set relates to RENCA renal tumor. The data set can be described thus: Orthotopic RENCA syngeneic renal tumor model. Format: in vivo, female BALB/c mice. Particulars: 30 mg/kg twice daily, i.p. As to the method: The aim of this study was to evaluate the antitumor efficacy of GO-672 (4-({4-carboxy-2′,4′-dichloro-[1,1′-biphenyl]-3-yl}carbamoyl)-6-hydroxybenzene-1,3-dicarboxylic acid) (30 mg/kg twice daily, i.p.) in an orthotopic RENCA syngeneic renal tumor model in female BALB/c mice in vivo.

For the next data set, the system named is BT-549. Description: Combination with anticancer agents, BT-549. Format: cell-based. The following applies: Homo sapiens, anticancer agent alone. The protocol: (§1) All cells can be incubated in the plates overnight at 37° C., 5% 002 incubator with different medium.
Another data set deals with MCF-7. The data set can be described thus: Combination with anticancer agents, MCF-7. Format: cell-based. Particulars: Homo sapiens, MCF7, anticancer agent alone. The protocol: as §1
Another data set relates to T-47D. Description: Combination with anticancer agents, T-47D. Particulars: Homo sapiens, T47D, anticancer agent alone. Format: cell-based. As to the method: as §1
A further data set deals with MDA-MB-231. Description: Combination with anticancer agents, MDA-MB-231. Format: cell-based. Particulars: Homo sapiens, anticancer agent alone. The protocol:
as §1

Another data set concerns Hs-578T. Description: Combination with anticancer agents, Hs-578T. Format: cell-based. Particulars: Homo sapiens, anticancer agent alone. The protocol: as §1
The conditions of data set [4]: all treated patients; cited from earlier work.
[5] abbreviates: 30 mg/kg twice daily, i.p., day 18.

Turning to `O=C(O)c1nn(Cc2ccc(Cl)cc2Cl)c2ccccc12` [Lonidamine], the “toxicities in preclinical trials” value in data set [1] was “significant pancreatic and hepatic toxicities”.
Consider `O=C(O)c1cc(C(=O)O)c(C(=O)Nc2cc(-c3ccc(Cl)cc3Cl)ccc2C(=O)O)cc1O` [Compound 1, 4-({4-carboxy-2′,4′-dichloro-[1,1′-biphenyl]-3-yl}carbamoyl)-6-hydroxybenzene-1,3-dicarboxylic acid], for which the “cell viability of HUVECs” value in the data set with HUVECs [2] and with HUVECs [3] was “did not reduce cell viability” throughout. Moreover, the “reduction of body weight vs control group” value with 4T1-M3-Luc breast tumor (30 mg/kg twice daily, i.p.) is recorded as “not significant”. In addition, the “T/C ratio (tumor volume)” value in the data set on 4T1-M3-Luc breast tumor (30 mg/kg twice daily, i.p., day 4) is 47%; in the data set with 4T1-M3-Luc breast tumor (30 mg/kg twice daily, i.p., day 7) it was 65%. Besides, the “tumor volume after necropsy” value in the data set with 4T1-M3-Luc breast tumor (setting [5]) is listed as “significantly lower”; in the data set on RENCA renal tumor (day 17), “significantly decreased”. Besides, the results for the “tumor weight after necropsy” value with 4T1-M3-Luc breast tumor (setting [5]) and with RENCA renal tumor (day 17) were “not tumor weight” and “no statistically significant difference”, respectively. Moreover, the “level of metastasis (ex vivo luciferase bioluminescence)” value in the data set on 4T1-M3-Luc breast tumor (lymph nodes, lung, spine and ileum) is “No statistically significant difference”. For the same compound, the Emax at 100 µM in the data set on HUVEC spheroids (HUVEC, at 100 μM, read-out: maximal effect: decrease of vessel sprouting down to) is roughly 25%. In the data set on HUVEC spheroids (HUVEC, at the highest doses, read-out: maximal effect of vessel reduction, % from the initial level), the Emax was in the range of 25 to 50%. Moreover, the EC50 in the data set on HUVEC spheroids (3D HUVEC model, VEGF-A 25 ng/ml, 24 hours, read-out: EC50 of inhibition of vessel sprouting) is 20 to 40 µM. In the data set with RENCA renal tumor (day 16), the bioluminescence result is recorded as “increase of bioluminescence”.
As for `NC(=O)c1cccc2cn(-c3ccc([C@@H]4CCCNC4)cc3)nc12` [Niraparib], the IC50 in the data set on BT-549 stood at 31 µM; in the data set with MCF-7, 14.5 µM; with T-47D it was 21 µM; in the data set on MDA-MB-231, 14.6 µM; in the data set on Hs-578T it was 36 µM.
As for `O=CC[C@@H](O)[C@H](O)[C@H](O)CO` [2-deoxy-D-glucose], the “adverse effect in clinical trial” value in data set [4] is reported as “hyperglycemia in all treated patients”.
